Results from ChEMBL document CHEMBL5390241, “Natural Enfumafungin Analogues from Hormonema carpetanum and Their Antifungal Activities” (2023).

Assays:
Format in all cases: functional
[1] = test system: [Candida] auris; experiment: Antifungal activity against Candida auris 919 assessed as inhibition in growth incubated for 48 hrs by broth microdilution method; details: Candidozyma auris
[2] = test system: [Candida] auris; experiment: Antifungal activity against Candida auris 918 assessed as inhibition in growth incubated for 48 hrs by broth microdilution method; details: Candidozyma auris
[3] = test system: Nakaseomyces glabratus; experiment: Antifungal activity against Candida glabrata 537 assessed as inhibition in growth incubated for 48 hrs by broth microdilution method
[4] = test system: Candida tropicalis; experiment: Antifungal activity against Candida tropicalis 8915 assessed as inhibition in growth incubated for 48 hrs by broth microdilution method
[5] = test system: Candida parapsilosis; experiment: Antifungal activity against Candida parapsilosis 22019 assessed as inhibition in growth incubated for 48 hrs by broth microdilution method; details: Lodderomyces parapsilosis
[6] = test system: Cryptococcus neoformans; experiment: Antifungal activity against Cryptococcus neoformans 32609 assessed as inhibition in growth incubated for 48 hrs by broth microdilution method
[7] = test system: Pichia kudriavzevii; experiment: Antifungal activity against candida krusei 4996 assessed as inhibition in growth incubated for 48 hrs by broth microdilution method
[8] = test system: Cryptococcus neoformans; experiment: Antifungal activity against Cryptococcus neoformans H99 assessed as inhibition in growth incubated for 48 hrs by broth microdilution method
[9] = test system: Candida albicans; experiment: Antifungal activity against Candida albicans 10231 assessed as inhibition in growth incubated for 48 hrs by broth microdilution method
[10] = test system: Candida albicans; experiment: Antifungal activity against Candida albicans SC5314 assessed as inhibition in growth incubated for 48 hrs by broth microdilution method

Measured: MIC80

CC(=O)O[C@@H]1C[C@]23C4=CC[C@@]5(C)[C@@H]6C(=O)C[C@H](C(C)C)[C@@]6(C)CC[C@]5(C)[C@H]4CC[C@H]2[C@@](C)(COC3O)[C@H]1O[C@@H]1O[C@H](CO)[C@@H](O)[C@H](O)[C@H]1O (stereo not given in full)
> 64 µg/mL: [1] | [2] | [5]
32 µg/mL: [8] | [9]
16 µg/mL: [3]
64 µg/mL: all other assays above

CC(=O)O[C@@H]1C[C@]23C4=CC[C@@]5(C)[C@H](C(=O)O)[C@@](C)([C@H](C)C(C)C)CC[C@]5(C)[C@H]4CC[C@H]2[C@@](C)(COC3O)[C@H]1O[C@@H]1O[C@H](CO)[C@@H](O)[C@H](O)[C@H]1O (stereo not given in full) [ENFUMAFUNGIN]
64 µg/mL: [1] | [2]
4 µg/mL: [4] | [8] | [9] | [10]
8 µg/mL: all other assays above

OC(Cn1cncn1)(Cn1cncn1)c1ccc(F)cc1F [FLUCONAZOLE]
1 µg/mL: [3] | [6] | [10]
4 µg/mL: [5]
> 64 µg/mL: all other assays above

CC(C)[C@@H](C)[C@@]1(C)CC[C@]2(C)[C@H]3CC[C@H]4[C@@]5(C)COC(O)[C@@]4(C[C@@H](O)[C@@H]5O[C@@H]4O[C@H](CO)[C@@H](O)[C@H](O)[C@H]4O)C3=CC[C@@]2(C)[C@@H]1C(=O)O (stereo not given in full)
32 µg/mL: [3]
64 µg/mL: [7]
> 64 µg/mL: all other assays above
